Data: US5849770A, “Tri-substituted phenyl derivatives useful as PDE IV inhibitors” (Celltech Therapeutics Ltd., priority 1995, dated 1998)
pIC50: −log10 of the molar value. Counter-ions that a name gives are not always drawn.

What was measured:
human PDE IVA = target: T1, human PDE IVA (Homo sapiens, UniProt P27815); assay: Isolated recombinant human PDE IVA enzyme, phosphodiesterase activity; assay type: biochemical; conditions: 0.1 μM [3H]-cAMP, pH 7.5, 30° C.
T1 construct: made in house; host or cells: yeast (inducible vector)
Text: A gene encoding human PDE IV has been cloned from human monocytes (Livi, et al., 1990, Molecular and Cellular Biology, 10, 2678). Using similar procedures we have cloned human PDE IV genes from a number of sources including eosinophils, neutrophils, lymphocytes, monocytes, brain and neuronal tissues. These genes have been transfected into yeast using an inducible vector and various recombinant proteins have been expressed which have the biochemical characteristics of PDE IV (Beavo and Reifsnyder, 1990, TIPS, 11, 150). These recombinant enzymes, particularly the human eosinophil recombinant PDE IVA, have been used as the basis of a screen for potent, selective PDE IV inhibitors.
The enzymes were purified to isoenzyme homogeneity using standard chromatographic techniques.
Phosphodiesterase activity was assayed as follows. The reaction was conducted in 150 μl of standard mixture containing (final concentrations): 50 mM 2-[[tris(hydroxymethyl)methyl]amino]-1-ethanesulphonic acid (TES) --NaOH buffer (pH 7.5), 10 mM MgCl2, 0.1 μM [^3 H]-cAMP and vehicle or various concentrations of the test compounds. The reaction was initiated by addition of enzyme and conducted at 30° C. for between 5 to 30 min. The reaction was terminated by addition of 50 μl 2% trifluoroacetic acid containing [^14 C]-5'AMP for determining recovery of the product. An aliquot of the sample was then applied to a column of neutral alumina and the [^3 H]-cAMP eluted with 10 ml 0.1 TES-NaOH buffer (pH8). The [^3 H]-5'-AMP product was eluted with 2 ml 2M NaOH into a scintillation vial containing 10 ml of scintillation cocktail. Recovery of [^3 H]-5'AMP was determined using the [^14 C]-5'AMP and all assays were conducted in the linear range of the reaction. Results were expressed as IC50 values.

[1] = Rat hepatocyte metabolism; assay type: in vitro ADME; conditions: rat hepatocytes, after 3 h; read-out: percentage of compound remaining
Protocol: The quantity of compound remaining after a fixed period of time was then determined using mass spectroscopy.
Thus in one such test the compound of Example 1 was compared with a related compound particularly described in International Patent Specification No. WO94/14742 in which the phenylsulphonyl group in the compound of Example 1 is replaced by a hydrogen atom. After 3 h the percentage of each compound remaining was: […]

[2] = Plasma levels after oral administration to squirrel monkeys; assay type: in vivo; conditions: monkey, 10 mg/kg p.o., after 30 min, read-out: plasma level
Protocol: The same two compounds were also administered orally to squirrel monkeys at 10 mg/kg p.o,. and the plasma levels of each determined. After 1 h the […] compound was present at 1 μg/ml whereas after 30 min the compound of Example 1 was present at 34 μg/ml, thus illustrating the good oral availability of the compound.

T1 sequence (P27815 whole entry): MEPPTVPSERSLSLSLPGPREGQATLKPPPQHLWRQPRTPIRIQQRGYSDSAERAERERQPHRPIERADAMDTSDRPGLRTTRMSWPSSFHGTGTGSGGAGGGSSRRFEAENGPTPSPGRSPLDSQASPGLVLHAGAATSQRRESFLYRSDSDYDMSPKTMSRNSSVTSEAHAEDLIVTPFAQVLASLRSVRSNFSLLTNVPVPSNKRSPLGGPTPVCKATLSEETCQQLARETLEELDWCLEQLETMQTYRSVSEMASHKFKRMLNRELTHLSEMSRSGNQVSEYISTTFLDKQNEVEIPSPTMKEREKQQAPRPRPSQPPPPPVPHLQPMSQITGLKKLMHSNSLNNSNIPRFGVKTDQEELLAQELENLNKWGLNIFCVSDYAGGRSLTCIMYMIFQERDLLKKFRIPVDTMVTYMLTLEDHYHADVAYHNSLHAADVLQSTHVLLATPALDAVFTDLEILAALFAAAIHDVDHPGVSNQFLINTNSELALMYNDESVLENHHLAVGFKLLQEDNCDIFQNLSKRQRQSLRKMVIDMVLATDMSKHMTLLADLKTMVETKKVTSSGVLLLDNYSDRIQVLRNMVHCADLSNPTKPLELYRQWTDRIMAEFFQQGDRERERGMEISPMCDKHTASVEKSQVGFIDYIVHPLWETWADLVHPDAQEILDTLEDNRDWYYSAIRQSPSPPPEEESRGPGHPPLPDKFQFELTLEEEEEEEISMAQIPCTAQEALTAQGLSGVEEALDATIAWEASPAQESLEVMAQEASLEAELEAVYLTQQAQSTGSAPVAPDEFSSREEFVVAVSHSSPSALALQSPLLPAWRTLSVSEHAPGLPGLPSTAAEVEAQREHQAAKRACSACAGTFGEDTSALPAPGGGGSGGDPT

| Structure (SMILES) | pIC50 (human PDE IVA) | remaining at 3 h [1] [%] | concentration at 0.5 h [2] [µg/mL] |
| --- | --- | --- | --- |
| COc1ccc([C@H](Cc2ccncc2)c2ccc(NC(=O)NS(=O)(=O)c3ccccc3)cc2)cc1OC1CCCC1 [Example 1, (R)-N-[4-{1-(3-Cyclopentyloxy-4-methoxyphenyl)-2-(4-pyridyl)ethyl}-phenyl]-N'-(phenylsulphonyl) urea, hydrochloride] | 8.40 | 56 | 34 |
| COc1ccc([C@H](Cc2ccncc2)c2ccc(NC(=O)NS(=O)(=O)c3ccc(C)cc3)cc2)cc1OC1CCCC1 [Example 2, (R)-N-[4-{1-(3-Cyclopentyloxy-4-methoxyphenyl)-2-(4-pyridyl)ethyl}-phenyl]-N'-(methylphenylsulphonyl) urea, hydrochloride] | 7.86 | – | – |
| COc1ccc([C@H](Cc2ccncc2)c2ccc(NC(=O)NS(=O)(=O)c3ccc(Cl)cc3)cc2)cc1OC1CCCC1 [Example 3, (R)-N-[4-{1-(3-Cyclopentyloxy-4-methoxyphenyl)-2-(4-pyridyl)ethyl}-phenyl]-N'-(4-chlorophenylsulphonyl) urea, hydrochloride] | 7.75 | – | – |
